In this assay the target is human APJ receptor (Homo sapiens (Human), UniProt P35414). Kind of assay: biochemical. The settings on record: [35S]GTPγS binding, CHO membranes expressing human APJ receptor; read-out: Activity hAPJ SPA EC50 IP. In kind it is biochemical. The procedure, abridged:
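Membranes of a stable CHO line carrying human APJ (pFLAG-CMV-3) were used in a GTPγS binding format; buffer GDP, MgCl2 and NaCl were optimized, and plates were read after 90 min at RT.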

SMILES strings stand for the structures.

human APJ receptor, sequence (P35414 whole entry): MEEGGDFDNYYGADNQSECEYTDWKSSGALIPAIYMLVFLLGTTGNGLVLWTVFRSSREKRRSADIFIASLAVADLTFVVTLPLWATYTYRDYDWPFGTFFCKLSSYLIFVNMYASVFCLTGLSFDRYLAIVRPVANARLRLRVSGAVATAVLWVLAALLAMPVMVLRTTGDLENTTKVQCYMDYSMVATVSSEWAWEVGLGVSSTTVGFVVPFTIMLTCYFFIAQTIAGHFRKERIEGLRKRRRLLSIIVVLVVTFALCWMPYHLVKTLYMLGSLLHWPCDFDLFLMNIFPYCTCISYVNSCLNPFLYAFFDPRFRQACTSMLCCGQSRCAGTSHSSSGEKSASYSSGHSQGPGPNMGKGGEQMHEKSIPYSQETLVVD

As to `COc1cccc(OC)c1-n1c(NS(=O)(=O)CCc2ccc(F)cc2C#N)nnc1-c1nc(C2CC2)cs1` [Example 155.0, 2-(2-cyano-4-fluorophenyl)-N-(5-(4-cyclopropylthiazol-2-yl)-4-(2,6-dimethoxyphenyl)-4H-1,2,4-triazol-3-yl)ethanesulfonamide], the EC50 was 10 nM.
With `COc1cccc(OC)c1-n1c(NS(=O)(=O)[C@H](C)Cc2ncc(F)cn2)nnc1-c1nc(C(C)C)cs1` [Example 156.0] the figure was 0.32 nM.
As to `COc1cccc(OC)c1-n1c(NS(=O)(=O)[C@H](C)Cc2ncc(F)cn2)nnc1-c1nc(C2CC2)cs1` [Example 161.0], the EC50 worked out at 3.8 nM.
Take `CCn1ccc(-c2nnc(NS(=O)(=O)[C@@H](C)[C@H](C)c3ncc(F)cn3)n2-c2c(OC)cccc2OC)n1` [Example 191.0, (2S,3R)-N-(4-(2,6-dimethoxyphenyl)-5-(1-ethyl-1H-pyrazol-3-yl)-4H-1,2,4-triazol-3-yl)-3-(5-fluoro-2-pyrimidinyl)-2-butanesulfonamide]: the EC50 is 0.63 nM.
For the compound `COc1cccc(OC)c1-n1c(NS(=O)(=O)[C@@H](C)[C@H](C)c2ncc(F)cn2)nnc1-c1ccn(C(F)F)n1` [Example 194.0, (2S,3R)-N-(5-(1-(difluoromethyl)-1H-pyrazol-3-yl)-4-(2,6-dimethoxyphenyl)-4H-1,2,4-triazol-3-yl)-3-(5-fluoro-2-pyrimidinyl)-2-butanesulfonamide], the EC50 stood at 0.48 nM.
With `COc1nccc(-c2nnc(NS(=O)(=O)[C@@H](C)[C@H](C)c3ncc(F)cn3)n2-c2c(OC)cccc2OC)n1` [Example 197.0, (2S,3R)-N-(4-(2,6-dimethoxyphenyl)-5-(2-methoxy-4-pyrimidinyl)-4H-1,2,4-triazol-3-yl)-3-(5-fluoro-2-pyrimidinyl)-2-butanesulfonamide] the figure was 2.4 nM.
Turning to `COc1cccc(OC)c1-n1c(NS(=O)(=O)[C@@H](C)[C@H](C)c2ncc(C)cn2)nnc1-c1ccn(C(F)F)n1` [Example 198.0, (2S,3R)-N-(5-(1-(difluoromethyl)-1H-pyrazol-3-yl)-4-(2,6-dimethoxyphenyl)-4H-1,2,4-triazol-3-yl)-3-(5-methyl-2-pyrimidinyl)-2-butanesulfonamide], the EC50 amounted to 0.2 nM.
Under `CCO[C@H](c1ncc(C)cn1)[C@H](C)S(=O)(=O)Nc1nnc(-c2ccn(C(F)F)n2)n1-c1c(OC)cccc1OC` [Example 199.0, (1R,2S)-N-(5-(1-(difluoromethyl)-1H-pyrazol-3-yl)-4-(2,6-dimethoxyphenyl)-4H-1,2,4-triazol-3-yl)-1-ethoxy-1-(5-methyl-2-pyrimidinyl)-2-propanesulfonamide] stands 0.26 nM; under `COc1cccc(OC)c1-n1c(NS(=O)(=O)[C@@H](C)[C@H](OC)c2ncc(C)cn2)nnc1-c1ccn(C)n1` [Example 200.0, (1R,2S)-N-(4-(2,6-dimethoxyphenyl)-5-(1-methyl-1H-pyrazol-3-yl)-4H-1,2,4-triazol-3-yl)-1-methoxy-1-(5-methyl-2-pyrimidinyl)-2-propanesulfonamide], 0.79 nM.
For `COc1cccc(OC)c1-n1c(NS(=O)(=O)[C@@H](C)[C@H](C)c2ncc(C)cn2)nnc1-c1ccn(C)n1` [Example 201.0, (2S,3R)-N-(4-(2,6-dimethoxyphenyl)-5-(1-methyl-1H-pyrazol-3-yl)-4H-1,2,4-triazol-3-yl)-3-(5-methyl-2-pyrimidinyl)-2-butanesulfonamide], the EC50 turned out to be 0.93 nM.
With `COc1cncc(-c2nnc(NS(=O)(=O)[C@@H](C)[C@H](C)c3ncc(C)cn3)n2-c2c(OC)cccc2OC)n1` [Example 202.0, (2S,3R)-N-(4-(2,6-dimethoxyphenyl)-5-(6-methoxy-2-pyrazinyl)-4H-1,2,4-triazol-3-yl)-3-(5-methyl-2-pyrimidinyl)-2-butanesulfonamide] the figure was 2.9 nM; with `COc1cccc(OC)c1-n1c(NS(=O)(=O)[C@@H](C)[C@H](OC)c2ncc(C)cn2)nnc1-c1ccn(C(F)F)n1` [Example 203.0, (1R,2S)-N-(5-(1-(difluoromethyl)-1H-pyrazol-3-yl)-4-(2,6-dimethoxyphenyl)-4H-1,2,4-triazol-3-yl)-1-methoxy-1-(5-methyl-2-pyrimidinyl)-2-propanesulfonamide], 2.1 nM.
As to `COc1cccc(OC)c1-n1c(NS(=O)(=O)[C@@H](C)[C@H](OC)c2ncc(C)cn2)nnc1-c1ncn(C)n1` [Example 204.0, (1R,2S)-N-(4′-(2,6-dimethoxyphenyl)-1-methyl-1H,4′H-3,3′-bi-1,2,4-triazol-5′-yl)-1-methoxy-1-(5-methyl-2-pyrimidinyl)-2-propanesulfonamide], the 50% effective concentration (EC50) turned out to be 52 nM.
With `COc1cccc(OC)c1-n1c(NS(=O)(=O)[C@@H](C)[C@H](OC)c2ncc(C)cn2)nnc1-c1cc2n(n1)CCC2` [Example 205.0, (1R,2S)-N-(5-(5,6-dihydro-4H-pyrrolo[1,2-b]pyrazol-2-yl)-4-(2,6-dimethoxyphenyl)-4H-1,2,4-triazol-3-yl)-1-methoxy-1-(5-methyl-2-pyrimidinyl)-2-propanesulfonamide] the figure was 3 nM; with `COc1cccc(OC)c1-n1c(NS(=O)(=O)[C@@H](C)[C@H](OC)c2ncc(C)cn2)nnc1-c1cnc2[nH]ccc2n1` [Example 206.0], 96 nM.
As for `COc1cccc(OC)c1-n1c(NS(=O)(=O)[C@@H](C)[C@H](OC)c2ncc(Cl)cn2)nnc1-c1ccn(C(F)F)n1` [Example 207.0, (1R,2S)-1-(5-chloro-2-pyrimidinyl)-N-(5-(1-(difluoromethyl)-1H-pyrazol-3-yl)-4-(2,6-dimethoxyphenyl)-4H-1,2,4-triazol-3-yl)-1-methoxy-2-propanesulfonamide], the EC50 worked out at 0.13 nM.
On to `COc1cccc(OC)c1-n1c(NS(=O)(=O)[C@@H](C)[C@H](C)c2ncc(F)cn2)nnc1-c1cc2n(n1)CCC2` [Example 208.0, (2S,3R)-N-(5-(5,6-dihydro-4H-pyrrolo[1,2-b]pyrazol-2-yl)-4-(2,6-dimethoxyphenyl)-4H-1,2,4-triazol-3-yl)-3-(5-fluoro-2-pyrimidinyl)-2-butanesulfonamide], for which the EC50 came to 2.5 nM.
With `COc1cccc(OC)c1-n1c(NS(=O)(=O)[C@@H](C)[C@H](C)c2ncc(F)cn2)nnc1-c1cncc(C)n1` [Example 209.0, (2S,3R)-N-(4-(2,6-dimethoxyphenyl)-5-(6-methyl-2-pyrazinyl)-4H-1,2,4-triazol-3-yl)-3-(5-fluoro-2-pyrimidinyl)-2-butanesulfonamide] the figure was 1.5 nM; with `COc1cccc(OC)c1-n1c(NS(=O)(=O)[C@@H](C)[C@H](OC)c2ncc(Cl)cn2)nnc1-c1cc2n(n1)CCC2` [Example 210.0, (1R,2S)-1-(5-chloro-2-pyrimidinyl)-N-(5-(5,6-dihydro-4H-pyrrolo[1,2-b]pyrazol-2-yl)-4-(2,6-dimethoxyphenyl)-4H-1,2,4-triazol-3-yl)-1-methoxy-2-propanesulfonamide], 0.83 nM; with `COc1cccc(OC)c1-n1c(NS(=O)(=O)[C@@H](C)[C@H](C)c2ncc(F)cn2)nnc1-c1cnn(C)c1` [Example 212.0, (2S,3R)-N-(4-(2,6-dimethoxyphenyl)-5-(1-methyl-1H-pyrazol-4-yl)-4H-1,2,4-triazol-3-yl)-3-(5-fluoro-2-pyrimidinyl)-2-butanesulfonamide], 0.42 nM.

Values taken from US11046680B1, “Heteroaryl-substituted triazoles as APJ receptor agonists” (priority 2016, dated 2021).
